# Measurements as given in patent US20040220268A1, “Compound that directly stimulates phospholipase C activity” (priority 2003, published 2004).
# Key:
# human neutrophils = test: [Ca2+]i measurement with fura-2 in neutrophils; type: cell-based; conditions: for effect on calcium signal induced by m-3M3FBS: pretreatment with 4 μM, m-3M3FBS 25 μM
# Procedure: Fura-2-loaded neutrophils were stimulated with m-3M3FBS or o-3M3FBS at 25 μM in extracellular calcium containing 2 mM or extracellular free calcium conditions. The results shown are representative of three independent experiments (A). Prepared neutrophils were loaded with fura-2 and then stimulated with 25 μM of m-3M3FBS in the absence or in the presence of 4 μM of U-73122 or U-73343 (B). Changes in 340 nm/380 nm excitation ratio were monitored, and converted to [Ca^2+]i levels. Data are presented as means ±S. E. M. of three independent experiments.
# (§1) Freshly prepared human neutrophils were incubated in serum free RPMI 1640 medium with 3 μM of fura-2/AM at 37° C. for 30 min with continuous stirring. After washing with serum free RPMI 1640 medium, the cells were suspended in serum free RPMI containing 250 μM of sulfinpyrazone to prevent dye leakage. About 2×10^6 cells were suspended in Ca^2+ free Locke's solution (158.4 mM NaCl, 5.6 mM KCl, 1.2 mM MgCl2, 5 mM HEPES pH 7.3, 10 mM glucose, and 0.2 mM EGTA) for each measurement. Changes in the fluorescence ratio were measured at an emission wavelength of 500 nm for dual excitation wavelengths at 340 nm and 380 nm. The calibration of the fluorescence ratio versus [Ca^2+]i was performed as described by Grynkiewicz (Grynkiewicz et al., 1985).
# Gs-proteins = test: Cyclic AMP generation (radio receptor assay); type: cell-based; conditions: human neutrophils; m-3M3FBS 25 μM, histamine 100 μM
# Procedure: (§2) Isolated neutrophils were preincubated with PTX (1 μg/ml) or vehicle for 90 min at 37° C. and stimulated with m-3M3FBS, FMLF, or ATP at concentrations of 25, 1, and 500 μM, respectively. Changes in the excitation ratios at 340 nm/380 nm were monitored. Data are presented as means ±S. E. M. of two independent experiments (A). cAMP levels were determined by a radio receptor assay. Prepared cells were treated with m-3M3FBS (25 μM) or histamine (100 μM) and then lysed with Tris-EDTA. After removing the supernatant, [ 3H] cAMP and protein were added, and the amount of [^3H] cAMP-protein complex was determined. The amount of unlabeled cAMP (in the sample) was then calculated by measuring the protein-bound radioactivity. Data are presented as means ±S. E. M. of two independent experiments (B). […] RGS2-GFP inducible HeLa cells were cultured for 48 h in the absence or in the presence of tetracycline and loaded with fura-2. Cells were treated with histamine (100 μM) or m-3M3FBS (25 μM), and changes in the 340 nm/380 nm ratios were monitored and converted to [Ca^2+]i values. The results shown are representative of three independent experiments (C).
# Gq-proteins = test: [Ca2+]i in RGS2-GFP inducible HeLa cells; type: cell-based, human; conditions: histamine 100 μM, m-3M3FBS 25 μM
# Procedure: as §2
# pRevTRE vector containing the cDNA of rat RGS2-GFP was transfected into Hela Tet-off cells using Lipofectamine. Selection was performed in DMEM supplemented with 2 μg/ml of tetracycline and 500 μg/ml of hygromycin B. Two weeks later, several well-isolated colonies were picked out and analyzed by western blotting to determine the expression level of RGS2 in the absence of tetracycline. For these experiments, HeLa cells were cultured for 48 h in the absence or in the presence of tetracycline.
# as §1
# [1] = tested on: PTX-sensitive Gi-proteins; test: PTX sensitivity of [Ca2+]i increase in neutrophils; type: cell-based, human; conditions: fMLF 1 μM
# Procedure: Isolated neutrophils were preincubated with PTX (1 μg/ml) or vehicle for 90 min at 37° C. and stimulated with m-3M3FBS, FMLF, or ATP at concentrations of 25, 1, and 500 μM, respectively. Changes in the excitation ratios at 340 nm/380 nm were monitored. Data are presented as means ±S. E. M. of two independent experiments (A). cAMP levels were determined by a radio receptor assay. Prepared cells were treated with m-3M3FBS (25 μM) or histamine (100 μM) and then lysed with Tris-EDTA. After removing the supernatant, [ 3H] cAMP and protein were added, and the amount of [^3H] cAMP-protein complex was determined. The amount of unlabeled cAMP (in the sample) was then calculated by measuring the protein-bound radioactivity. Data are presented as means ±S. E. M. of two independent experiments (B). RGS2-GFP inducible HeLa cells were cultured for 48 h in the absence or in the presence of tetracycline, and the induction of RGS2-GFP was confirmed by Western blot analysis using anti-GFP antibody (C). RGS2-GFP inducible HeLa cells were cultured for 48 h in the absence or in the presence of tetracycline and loaded with fura-2. Cells were treated with histamine (100 μM) or m-3M3FBS (25 μM), and changes in the 340 nm/380 nm ratios were monitored and converted to [Ca^2+]i values. The results shown are representative of three independent experiments (C).
# as §1
molecule,measurement,setting,value
"COc1ccc2c(c1)CC[C@@H]1[C@@H]2CC[C@]2(C)[C@@H](NCCCCCCN3C(=O)C=CC3=O)CC[C@@H]12 [U-73122, reference compound]",effect on m-3M3FBS-induced calcium signal,"human neutrophils; preincubation in the presence of extracellular calcium, data not shown",completely blocked
same,effect on calcium signal induced by m-3M3FBS,human neutrophils,complete inhibition
"COc1ccc2c(c1)CC[C@@H]1[C@@H]2CC[C@]2(C)[C@@H](NCCCCCCN3C(=O)CCC3=O)CC[C@@H]12 [U-73343, reference compound]",effect on calcium signal induced by m-3M3FBS,human neutrophils,no effect
"NCCc1c[nH]cn1 [histamine, reference compound]",intracellular cAMP level,Gs-proteins,potently induce cAMP production
same,[Ca2+]i increase,Gq-proteins; HeLa cells in the presence of tetracycline (RGS2 not induced),caused [Ca^2+]i increases
same,effect of RGS2 induction on the induced calcium response,Gq-proteins; HeLa cells overexpressing RGS2,completely blocked
fMLF,effect of PTX preincubation on the induced calcium increase,"[1]; PTX 1 μg/ml for 90 min, m-3M3FBS 25 μM",inhibited
same,[Ca2+]i increase,"[1]; neutrophils, without PTX",induced [Ca^2+]i increase
